Publication PMC10436260, “Thiazolide Prodrug Esters and Derived Peptides: Synthesis and Activity” (ACS Bio & Med Chem Au, 2023)
Values after ≈ are worked out from the molar mass of the structure shown. “Also recorded” adds a separate entry of the source. Read-outs that look alike come from different tables or passages of the source.

Columns and labels:
[1] = assay type: physicochemical; conditions: for stability of solutions: pH 5
Description: We studied the aqueous stability further by NMR, Figures 1 and 2. […] In the case of valacyclovir, which we originally used as a model for 5a and 6, it was known that some hydrolysis occurred in vivo.[17] Clearly, at the 18 day time point [Figure 2g], the rearrangement and hydrolysis products accounted for ∼50% of the total analyte. In Figure 3, the aryl region is integrated and compared with the spectra of 5a, 3, and 8 (see below).
Figure 2 Time-course ^1H NMR spectra of the aromatic region of 5a in d6-DMSO + 10%D2O. Evolution with time over an 18 day period at 298–313 K. The sample was held in an isothermal bath at a specified temperature between measurements. Spectra were recorded at the temperature stated in each case. (a) t = zero, 298 K; (b) t = 1 week, 308 K; (c) t = 8 days, 308 K; (d) t = 9 days, 308 K; (e) t = 11 days, 313 K; (f) t = 14 days, 313 K; (g) t = 18 days, 313 K.
Figure 3 Assignment and integration of the final time-point spectrum.

physchem [2] = assay type: physicochemical
Description: Table 1 Summarized DMPK and Antiviral Data for Thiazolides and Derived Peptides | column: log P

[3] = clearance in rat hepatocytes (RH); assay type: in vitro ADME
Description: Table 1 Summarized DMPK and Antiviral Data for Thiazolides and Derived Peptides | column: clearance RH μL/min/10^6 cells

in vitro = in vitro ADME; conditions: human, microsomes
Description: Table 1 Summarized DMPK and Antiviral Data for Thiazolides and Derived Peptides | column: clearance HLM μL/min/mg

[4] = system: influenza A virus (IAV) strain A/PuertoRico/8/1934(H1N1) (PR8); assay: microbe, parasite or virus in culture; assay type: cell-based
[5] = cell viability by MTT assay in mock-infected cells; assay type: cell-based, canine; conditions: dog; mock-infected MDCK cells, MTT, 24 h; read-out: CC50 (50% cytotoxic concentration)
Procedure: (§1) Madin–Darby canine kidney (MDCK) cells (American Type Culture Collection, ATCC) were grown at 37 °C in a 5% CO2 atmosphere in an RPMI-1640 medium (LONZA-CAMBREX, Basel, Switzerland), supplemented with 10% fetal calf serum (FCS), 2 mM glutamine, and antibiotics. Tizoxanide (Romark Laboratories, L.C.) and derived peptides, dissolved in a dimethyl sulfoxide (DMSO) stock solution, were diluted in culture medium, added to infected cells after a one-hour virus adsorption period, and maintained in the medium for the duration of the experiment.
(§2) Cell viability was determined by the 3-(4,5-dimethylthiazol-2-yl)-2,5-diphenyltetrazolium bromide (MTT) to MTT formazan conversion assay (Sigma-Aldrich), as described.[28],[29] The 50% cytotoxic dose (CC50) was calculated using Prism 5.0 software (Graph-Pad Software Inc.).[28]
(§3) Confluent cell monolayers were mock-infected or infected with PR8 virus for 1 h at 37 °C at a multiplicity of infection (MOI) of 5 HAU (hemagglutinating units)/10^5 cells, as described.[30],[31] After the adsorption period, the viral inoculum was removed and cells were treated with different concentrations (0.1, 1, 5, 10, and 50 μg/mL) of each compound or vehicle and maintained at 37 °C in an RPMI-1640 medium containing 2% FCS for 24 h; in parallel, cell viability was determined in mock-infected cells by the MTT assay, as described above. Virus yield was determined 24 h post infection (p.i.) by HA titration, as described.[31] Compounds’ IC50 (50% inhibitory concentration) and IC90 (90% inhibitory concentration) were calculated using Prism 5.0 software.

physchem [6] = conditions: pH 7.4
[7] = rat, in vivo, po; cited from earlier work
[8] = system: Madin–Darby canine kidney (MDCK) cells; assay: cell viability by MTT assay in mock-infected cells; assay type: cell-based; conditions: antiviral assay conditions, MDCK cells
Procedure: as §1, §2, §3

[9] = CC50 (MDCK) / IC50 (influenza A)
[10] = Influenza A virus, MDCK, 24 h; read-out: IC50 (50% inhibitory concentration)
[11] = Influenza A virus, MDCK, 24 h; read-out: IC90 (90% inhibitory concentration)

CC(C)(C)[C@H](N)C(=O)Oc1ccccc1C(=O)Nc1ncc([N+](=O)[O-])s1.Cc1ccc(S(=O)(=O)O)cc1 [5b, (S)-3,3-Dimethyl-1-(2-((5-nitrothiazol-2-yl)carbamoyl)phenoxy)-1-oxobutan-2-aminium 4-methylbenzenesulfonate]
stability of solutions [1]: unstable

CC(C)(C)[C@H](N)C(=O)Oc1ccccc1C(=O)Nc1ncc([N+](=O)[O-])s1.CS(=O)(=O)O [5c, (S)-3,3-Dimethyl-1-(2-((5-nitrothiazol-2-yl)carbamoyl)phenoxy)-1-oxobutan-2-aminium Methanesulfonate]
stability of solutions [1]: unstable

CC(C)(C)[C@H](NC(=O)c1ccccc1O)C(=O)Nc1ncc([N+](=O)[O-])s1 [compound 8, (S)-N-(3,3-Dimethyl-1-((5-nitrothiazol-2-yl)amino)-1-oxobutan-2-yl)-2-hydroxybenzamide]
logP (physchem [2]): 3.3
hepatocyte CLint [3]: 31.5 µL/min/1e6 cells
microsomal CLint (in vitro): 36.5 µL/min/mg
SI, selectivity index, CC50/IC50 [4, 9]: >83
IC50 [4, 10]: 1.6 µM
IC90 [4, 11]: 79 µM
antiviral activity in words ([4]; influenza A virus assay): retains good activity
CC50 at 24 h [5]: > 132 µM
solubility (physchem [6]): 18 µM (≈ 6.81 µg/mL)

O=C(Nc1ncc([N+](=O)[O-])s1)c1ccccc1O [compound 3, Tizoxanide, reference compound]
logP (physchem [2]): 1.8
hepatocyte CLint [3]: 244 µL/min/1e6 cells
microsomal CLint (in vitro): 50.2 µL/min/mg
SI, selectivity index, CC50/IC50 [4, 9]: >82
IC50 [4, 10]: 2.3 µM
IC90 [4, 11]: 26.4 µM
CC50 at 24 h [5]: > 189 µM
solubility (physchem [6]): 33 µM (≈ 8.75 µg/mL)

CC(C)(C)[C@H](N)C(=O)Oc1ccccc1C(=O)Nc1ncc(Cl)s1 [compound 6]
stability on storage [1]: stable for months
absolute bioavailability [7]: 20–25%

CC(C)[C@H](NC(=O)c1ccccc1O)C(=O)Nc1ncc([N+](=O)[O-])s1 [compound 21, (S)-2-Hydroxy-N-(3-methyl-1-((5-nitrothiazol-2-yl)amino)-1-oxobutan-2-yl)benzamide]
logP (physchem [2]): 2.9
hepatocyte CLint [3]: 67.7 µL/min/1e6 cells
microsomal CLint (in vitro): 55.9 µL/min/mg
SI, selectivity index, CC50/IC50 [4, 9]: >10
IC50 [4, 10]: 13.7 µM
IC90 [4, 11]: > 137 µM
antiviral activity in words ([4]; influenza A virus assay): considerably less active
CC50 at 24 h [5]: > 137 µM
solubility (physchem [6]): > 1000 µM

CC(C)[C@H](NC(=O)c1ccccc1O)C(=O)Nc1ncc(Cl)s1 [compound 22, (S)-2-Hydroxy-N-(3-methyl-1-((5-chlorothiazol-2-yl)amino)-1-oxobutan-2-yl)benzamide]
hepatocyte CLint [3]: 234 µL/min/1e6 cells
microsomal CLint (in vitro): 42.7 µL/min/mg
IC50 [4, 10]: > 42.4 µM
IC90 [4, 11]: > 42.4 µM
antiviral activity in words ([4]; influenza A virus assay): essentially inactive; also recorded: virtually inactive
CC50 at 24 h [5]: 42.4 µM
toxicity under the assay conditions in words [8]: appeared toxic
solubility (physchem [6]): 82 µM (≈ 29 µg/mL)

CC(C)(C)[C@H](N)C(=O)Oc1ccccc1C(=O)Nc1ncc([N+](=O)[O-])s1 [5a]
antiviral activity in words ([4]; influenza A virus assay): activity is equivalent to 3
stability on storage [1]: stable for months
rearrangement and hydrolysis products as share of total analyte / loss of 5a ([1]; d6-DMSO + 10% D2O, 298–313 K, 18 day time point, 1H NMR integration): ~50%
absolute bioavailability [7]: 20–25%

O=C(Nc1ncc(Cl)s1)c1ccccc1O [compound 4, reference compound]
logP (physchem [2]): 2.9
hepatocyte CLint [3]: > 300 µL/min/1e6 cells
microsomal CLint (in vitro): 37.5 µL/min/mg
SI, selectivity index, CC50/IC50 [4]: >50
IC50 ([4]; Influenza A virus, MDCK, 24 h, read-out: IC50 (50% inhibitory concentration)): 3.9 µM
IC90 ([4]; Influenza A virus, MDCK, 24 h, read-out: IC90 (90% inhibitory concentration)): 19.6 µM
CC50 at 24 h [5]: > 196 µM
solubility (physchem [6]): 48 µM (≈ 12.2 µg/mL)

CC(C)(C)[C@H](NC(=O)c1ccccc1O)C(=O)Nc1ncc(Cl)s1 [compound 20, (S)-N-(3,3-Dimethyl-1-((5-chlorothiazol-2-yl)amino)-1-oxobutan-2-yl)-2-hydroxybenzamide]
logP (physchem [2]): > 3.5
hepatocyte CLint [3]: 75.4 µL/min/1e6 cells
microsomal CLint (in vitro): 42.4 µL/min/mg
IC50 [4, 10]: > 40.8 µM
IC90 [4, 11]: > 40.8 µM
antiviral activity in words ([4]; influenza A virus assay): essentially inactive; also recorded: virtually inactive
CC50 at 24 h [5]: 40.8 µM
toxicity under the assay conditions in words [8]: appeared toxic
solubility (physchem [6]): 388 µM (≈ 143 µg/mL)
